Consider 19 molecules from patent publication US20180297966A1, “COMPOUNDS, COMPOSITIONS, AND METHODS OF MAKING AND USING THE SAME” (INNOVATIVE ANESTHETICS, LLC, priority 2015, published 2018).

A short description of data set [1]: pH of exemplary salts with respect to concentration (% w/v). The format is physicochemical.
Data set [2] has as its system rats (hindpaw heat pain). The data set can be described thus: Hindpaw withdrawal latency to a thermal stimulus after injection of a caine salt. Format: in vivo, Sprague Dawley rats. Conditions: 1% by weight solution in water, 100 μl injected into hindpaw of rats, 10 minutes post-injection, compared to naïve animals, N=10 animals/group, cutoff 32 seconds. How it is done: Male Sprague Dawley® rats (200-300 g, Charles River) were housed in groups of two and were maintained in a standard 12-h light/dark cycle and testing was completed in the light portion of the cycle between 09:00-12:00. Animals were placed into the behavioural procedure room 30 min prior to testing to acclimate. When not in testing sessions, food and water were made available ad libitum. Animal testing procedures complied with the ethical guidelines and standards established by the University of Florida's Institutional Animal Care & Use Committee and with the Guide for Care and Use of Laboratory Animals (National Research Council Guide for the Care and Use of Laboratory Animals. Washington, D.C., National Academy Press; 1996.).
1% by weight solutions of 3a-3h were injected into the hindpaw of rats and withdrawal latency to a thermal stimulus was recorded 10 minutes post-injection. Response to hindpaw heat pain was determined by placing unrestrained rats on a clear glass platform under a small plastic cage and rats habituated for 5 min. A radiant heat source was aimed directly under the ventral hindpaw surface and the time to paw withdrawal was recorded. Baseline responses were obtained under naïve conditions (e.g., no injection), while post-treatment effects of caine salts 3a-3h in the respective vehicle (water) were assessed for 10 minutes following injection (100 μl). A cutoff of 32 seconds was used to prevent tissue damage.

Values joined by “and” are separate entries in the source; they are usually repeats but may differ in a detail not shown here. Identical values can stand only once. Counter-ions that a name gives are not always drawn. Like-named read-outs stand apart in the source and are kept apart here.

`CCCNC(C)C(=O)Nc1c(C)csc1C(=O)OC` (stereo not shown) [Articaine hydrochloride, reference compound]: the pH is listed as 4.78 in data set [1] (Conc. 2% w/v), 4.62 in data set [1] (Conc. 5% w/v) and 4.22 in data set [1] (Conc. 10% w/v).

With `CCCNC(C)C(=O)Nc1c(C)csc1C(=O)OC.O=C1NS(=O)(=O)c2ccccc21` (stereo not shown) [Articaine saccharinate, Articaine Saccharinate], in data set [2], the “withdrawal latency to a thermal stimulus” value was “significant increase in latency time”. The pH in data set [1] is 3.83 and 4.15.

With `CC1=CC(=O)NS(=O)(=O)O1.CCCCN1CCCCC1C(=O)Nc1c(C)cccc1C` (stereo not shown) [Bupivacaine acesulfamate, Bupivacaine Acesulfamate], the “withdrawal latency to a thermal stimulus” value in data set [2] was “significant increase in latency time”. The pH in data set [1] was 4.25 and 5.13 and 5.38.

On to `CCCCN1CCCCC1C(=O)Nc1c(C)cccc1C` (stereo not shown) [Bupivacaine hydrochloride, reference compound], for which the pH is 5.22 in data set [1] (Conc. 2% w/v), 4.81 in data set [1] (Conc. 5% w/v) and 4.23 in data set [1] (Conc. 10% w/v).

Take `CCCCN1CCCCC1C(=O)Nc1c(C)cccc1C.O=C1NS(=O)(=O)c2ccccc21` (stereo not shown) [Bupivacaine saccharinate, Bupivacaine Saccharinate]: the “withdrawal latency to a thermal stimulus” value in data set [2] is on record as “significant increase in latency time”. Moreover, the pH in data set [1] was 3.84 and 3.66 and 5.19.

For the molecule `CC1=CC(=O)NS(=O)(=O)O1.CNC[C@H](O)c1ccc(O)c(O)c1` [Epinephrine acesulfamate, Epinephrine Acesulfamate], the pH in data set [1] is 4.01 and 4.14 and 4.34.

Take `CNC[C@H](O)c1ccc(O)c(O)c1` [Epinephrine hydrochloride, reference compound]: the pH is 4.84 in data set [1] (Conc. 2% w/v), 3.91 in data set [1] (Conc. 5% w/v) and 2.72 in data set [1] (Conc. 10% w/v).

With `CNC[C@H](O)c1ccc(O)c(O)c1.O=C1NS(=O)(=O)c2ccccc21` [Epinephrine saccharinate, Epinephrine Saccharinate], in data set [1], the pH is 3.57 and 4.03 and 4.41.

With `CC1=CC(=O)NS(=O)(=O)O1.CCN(CC)CC(=O)Nc1c(C)cccc1C` [Lidocaine acesulfamate], the pH in data set [1] was 4.84 and 5.08 and 5.26.

`CCN(CC)CC(=O)Nc1c(C)cccc1C` [Lidocaine hydrochloride, reference compound]: the pH in data set [1] (Conc. 2% w/v) stood at 4.65; in data set [1] (Conc. 5% w/v), 4.53; in data set [1] (Conc. 10% w/v) it was 3.94.

On to `CCN(CC)CC(=O)Nc1c(C)cccc1C.O=C1NS(=O)(=O)c2ccccc21` [Lidocaine saccharinate], for which the pH in data set [1] was 4.31 and 4.41 and 4.51.

For the molecule `CC1=CC(=O)NS(=O)(=O)O1.Cc1cccc(C)c1NC(=O)C1CCCCN1C` (stereo not shown) [Mepivacaine acesulfamate], the “withdrawal latency to a thermal stimulus” value in data set [2] is reported as “significant increase in latency time”. For the same molecule, the figures for the pH in data set [1] (Conc. 2% w/v), in data set [1] (Conc. 5% w/v) and in data set [1] (Conc. 10% w/v) were 4.91, 4.87 and 4.00, respectively.

In the case of `Cc1cccc(C)c1NC(=O)C1CCCCN1C` (stereo not shown) [Mepivacaine hydrochloride, reference compound], the figures for the pH in data set [1] (Conc. 2% w/v), in data set [1] (Conc. 5% w/v) and in data set [1] (Conc. 10% w/v) were 4.53, 3.77 and 3.73, respectively.

Take `Cc1cccc(C)c1NC(=O)C1CCCCN1C.O=C1NS(=O)(=O)c2ccccc21` (stereo not shown) [Mepivacaine saccharinate, Mepivacaine Saccharinate]: the “withdrawal latency to a thermal stimulus” value in data set [2] is listed as “significant increase in latency time”. Also, in data set [1], the pH was 4.06 and 4.23.

With `CC1=CC([O-])=NS(=O)(=O)O1.[K+]` [Potassium acesulfamate, potassium 6-methyl-1,2,3-oxathiazin-4-olate 2,2-dioxide, reference compound], the pH amounted to 5.98 in data set [1] (Conc. 2% w/v), 6.33 in data set [1] (Conc. 5% w/v) and 5.78 in data set [1] (Conc. 10% w/v).

Consider `CC1=CC(=O)NS(=O)(=O)O1.CCCNC(C)C(=O)Nc1ccccc1C` (stereo not shown) [Prilocaine acesulfamate, Prilocaine Acesulfamate], for which the “withdrawal latency to a thermal stimulus” value in data set [2] is recorded as “significant increase in latency time”. Also, the pH worked out at 5.16 in data set [1] (Conc. 2% w/v), 5.00 in data set [1] (Conc. 5% w/v) and 4.71 in data set [1] (Conc. 10% w/v).

For the molecule `CCCNC(C)C(=O)Nc1ccccc1C` (stereo not shown) [Prilocaine hydrochloride, reference compound], the pH in data set [1] (Conc. 2% w/v) worked out at 4.60; in data set [1] (Conc. 5% w/v), 3.42; in data set [1] (Conc. 10% w/v) it was 2.10.

As for `CCCNC(C)C(=O)Nc1ccccc1C.O=C1NS(=O)(=O)c2ccccc21` (stereo not shown) [Prilocaine saccharinate, Prilocaine Saccharinate], the pH in data set [1] is 4.47 and 4.96 and 5.04.

As to Articaine Acesulfamate, the “withdrawal latency to a thermal stimulus” value in data set [2] is given as “significant increase in latency time”.
